Patent US10544130B2, “Metallo-beta-lactamase inhibitors” (priority 2015, dated 2020)

Test system: Pseudomonas aeruginosa PAO1 MB9798 (efflux+, IMP-1)
Settings: ratio MITC95 PA 9798/MITC95 PA 9799; imipenem at 2 μg/mL
Procedure, shortened: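 Isogenic PAO1 pair (efflux+ MB9798, efflux− MB9799, both IMP-1) tested by microbroth MIC with fixed imipenem and/or ceftazidime, usually at CLSI breakpoint, plus fixed class A/C inhibitor against AmpC. MBL inhibitor titrated; concentration restoring susceptibility recorded and fold difference between strains taken as efflux extent.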

Row | SMILES | Efflux ratio
1 | Cn1c(N)nc2c(-c3ccc(S(=O)(=O)N[C@H]4CC[N+](C)(C)C4)c(S(N)(=O)=O)c3-c3nn[n-]n3)cccc21 [Example 167, (S)-5-(6-(2-amino-1-methyl-1H-benzo[d]imidazol-4-yl)-3-(N-(1,1-dimethylpyrrolidin-1-ium-3-yl)sulfamoyl)-2-sulfamoylphenyl)tetrazol-2-ide] | 2.00
2 | Nc1nc2c(-c3ccc(S(=O)(=O)N[C@H]4CNC[C@H]4O)c(S(N)(=O)=O)c3-c3nnn[nH]3)cccc2[nH]1 [Example 168, 4-(2-amino-1H-benzo[d]imidazol-4-yl)-N^1-((3S,4R)-4-hydroxypyrrolidin-3-yl)-3-(1H-tetrazol-5-yl)benzene-1,2-disulfonamide] | 0.70
3 | Nc1nc2c(-c3ccc(S(=O)(=O)N[C@H]4CNC[C@@H]4O)c(S(N)(=O)=O)c3-c3nnn[nH]3)cccc2[nH]1 [Example 169, 4-(2-amino-1H-benzo[d]imidazol-4-yl)-N^1-((3S,4S)-4-hydroxypyrrolidin-3-yl)-3-(1H-tetrazol-5-yl)benzene-1,2-disulfonamide] | 1.00
4 | Nc1nc2c(-c3ccc(S(=O)(=O)N[C@@H]4CNC[C@@H]4O)c(S(N)(=O)=O)c3-c3nnn[nH]3)cccc2[nH]1 [Example 170, 4-(2-amino-1H-benzo[d]imidazol-4-yl)-N^1-((3R,4S)-4-hydroxypyrrolidin-3-yl)-3-(1H-tetrazol-5-yl)benzene-1,2-disulfonamide] | 1.00
5 | Nc1nc2c(-c3ccc(S(=O)(=O)N[C@@H]4CNC[C@H]4O)c(S(N)(=O)=O)c3-c3nnn[nH]3)cccc2[nH]1 [Example 171, 4-(2-amino-1H-benzo[d]imidazol-4-yl)-N^1-((3R,4R)-4-hydroxypyrrolidin-3-yl)-3-(1H-tetrazol-5-yl)benzene-1,2-disulfonamide] | 0.50
6 | Nc1nc2c(-c3ccc(S(=O)(=O)N[C@H]4CN[C@H](CO)C4)c(S(N)(=O)=O)c3-c3nnn[nH]3)cccc2[nH]1 [Example 172, 4-(2-amino-1H-benzo[d]imidazol-4-yl)-N^1-((3R,5S)-5-(hydroxymethyl)pyrrolidin-3-yl)-3-(1H-tetrazol-5-yl)benzene-1,2-disulfonamide] | 0.50
7 | Nc1nc2c(-c3ccc(S(=O)(=O)N[C@H]4CN[C@@H](CO)C4)c(S(N)(=O)=O)c3-c3nnn[nH]3)cccc2[nH]1 [Example 173, 4-(2-amino-1H-benzo[d]imidazol-4-yl)-N^1-((3R,5R)-5-(hydroxymethyl)pyrrolidin-3-yl)-3-(1H-tetrazol-5-yl)benzene-1,2-disulfonamide] | 1.00
8 | Nc1nc2c(-c3ccc(S(=O)(=O)N[C@@H]4CN[C@@H](CO)C4)c(S(N)(=O)=O)c3-c3nnn[nH]3)cccc2[nH]1 [Example 174, 4-(2-amino-1H-benzo[d]imidazol-4-yl)-N^1-((3S,5R)-5-(hydroxymethyl)pyrrolidin-3-yl)-3-(1H-tetrazol-5-yl)benzene-1,2-disulfonamide] | 1.00
9 | Nc1nc2c(-c3ccc(S(=O)(=O)N[C@@H]4CN[C@H](CO)C4)c(S(N)(=O)=O)c3-c3nnn[nH]3)cccc2[nH]1 [Example 175, 4-(2-amino-1H-benzo[d]imidazol-4-yl)-N^1 - ((3S,5S)-5-(hydroxymethyl)pyrrolidin-3-yl)-3-(1H-tetrazol-5-yl)benzene-1,2-disulfonamide] | 0.50
10 | Nc1nc2c(-c3ccc(S(=O)(=O)N[C@@]4(CO)CCNC4)c(S(N)(=O)=O)c3-c3nnn[nH]3)cccc2[nH]1 [Example 176, (S)-4-(2-amino-1H-benzo[d]imidazol-4-yl)-N1-(3-(hydroxymethyl)pyrrolidin-3-yl)-3-(1H-tetrazol-5-yl)benzene-1,2-disulfonamide] | 1.00
11 | Nc1nc2c(-c3ccc(S(=O)(=O)N[C@]4(CO)CCNC4)c(S(N)(=O)=O)c3-c3nnn[nH]3)cccc2[nH]1 [Example 177, (R)-4-(2-amino-1H-benzo[d]imidazol-4-yl)-N1-(3-(hydroxymethyl)pyrrolidin-3-yl)-3-(1H-tetrazol-5-yl)benzene-1,2-disulfonamide] | 0.50
12 | Nc1nc2c(-c3ccc(S(=O)(=O)N[C@@H]4CCCNC4)c(S(N)(=O)=O)c3-c3nnn[nH]3)cccc2[nH]1 [Example 178, (R)-4-(2-amino-1H-benzo[d]imidazol-4-yl)-N^1-(piperidin-3-yl)-3-(1H-tetrazol-5-yl)benzene-1,2-disulfonamide] | 1.00
13 | Nc1nc2c(-c3ccc(S(=O)(=O)N[C@H]4CCCNC4)c(S(N)(=O)=O)c3-c3nnn[nH]3)cccc2[nH]1 [Example 179, (S)-4-(2-amino-1H-benzo[d]imidazol-4-yl)-N^1-(piperidin-3-yl)-3-(1H-tetrazol-5-yl)benzene-1,2-disulfonamide] | 2.00
14 | NCCNS(=O)(=O)c1ccc(-c2cc(F)cc3[nH]c(N)nc23)c(-c2nnn[nH]2)c1S(N)(=O)=O [Example 180, 4-(2-amino-6-fluoro-1H-benzo[d]imidazol-4-yl)-N^1-(2-aminoethyl)-3-(1H-tetrazol-5-yl)benzene-1,2-disulfonamide] | 0.50
15 | NCCCNS(=O)(=O)c1ccc(-c2cccc3[nH]c(N)nc23)c(-c2nn[nH]n2)c1S(N)(=O)=O [Example 182, 4-(2-amino-1H-benzo[d]imidazol-4-yl)-N1-(3-aminopropyl)-3-(2H-tetrazol-5-yl)benzene-1,2-disulfonamide] | 0.80
16 | Cn1c(N)nc2c(-c3ccc(S(=O)(=O)NCCCN)c(S(N)(=O)=O)c3-c3nn[nH]n3)cccc21 [Example 183, 4-(2-amino-1-methyl-1H-benzo[d]imidazol-4-yl)-N^1-(3-aminopropyl)-3-(2H-tetrazol-5-yl)benzene-1,2-disulfonamide] | 1.00
17 | C[C@H](N)CNS(=O)(=O)c1ccc(-c2cccc3[nH]c(N)nc23)c(-c2nn[nH]n2)c1S(N)(=O)=O [Example 184, 4-(2-amino-1H-benzo[d]imidazol-4-yl)-N1-((S)-2-aminopropyl)-3-(2H-tetrazol-5-yl)benzene-1,2-disulfonamide] | 1.00
18 | C[C@@H](N)CNS(=O)(=O)c1ccc(-c2cccc3[nH]c(N)nc23)c(-c2nn[nH]n2)c1S(N)(=O)=O [Example 185, 4-(2-amino-1H-benzo[d]imidazol-4-yl)-N1-((R)-2-aminopropyl)-3-(2H-tetrazol-5-yl)benzene-1,2-disulfonamide] | 0.65
19 | C[C@@H](CN)NS(=O)(=O)c1ccc(-c2cccc3[nH]c(N)nc23)c(-c2nn[nH]n2)c1S(N)(=O)=O [Example 186, 4-(2-amino-1H-benzo[d]imidazol-4-yl)-N^1—((S)-1-aminopropan-2-yl)-3-(2H-tetrazol-5-yl)benzene-1,2-disulfonamide] | 2.00
20 | C[C@H](CN)NS(=O)(=O)c1ccc(-c2cccc3[nH]c(N)nc23)c(-c2nn[nH]n2)c1S(N)(=O)=O [Example 187, 4-(2-amino-1H-benzo[d]imidazol-4-yl)-N^1—((R)-1-aminopropan-2-yl)-3-(2H-tetrazol-5-yl)benzene-1,2-disulfonamide] | 0.50
21 | NC(=O)[C@H](N)CNS(=O)(=O)c1ccc(-c2cccc3[nH]c(N)nc23)c(-c2nn[nH]n2)c1S(N)(=O)=O [Example 188, (2R)-2-amino-3-(4-(2-amino-1H-benzo[d]imidazol-4-yl)-2-sulfamoyl-3-(2H-tetrazol-5-yl)phenylsulfonamido)propanamide] | 0.50
